# Source: PMC6934184, “Selective DNA-PKcs inhibition extends the therapeutic index of localized radiotherapy and chemotherapy” (The Journal of Clinical Investigation, 2019)
# Target: T1, CDK2/cyclin A (Homo sapiens, UniProt P24941)
# T1 construct: purchased Thermo Fisher Scientific (Life Technologies) SelectScreen
# Assay: SelectScreen Z'LYTE
# Type: biochemical
# In short: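 Percent values come from Thermo SelectScreen profiling of NU5455, combining activity and binding assays. CSF1R was run in Z'LYTE format at Km app ATP, and CAMK1 in Adapta format with ATP listed at 10.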
structure (smiles),measurement,value
CN(C(=O)CN1CCOCC1)c1ccc2sc3c(-c4cccc5c(=O)cc(N6CC7CCC(C6)O7)oc45)cccc3c2c1 [NU5455],inhibition at 1 µM,2.7%
